The record followed here is ChEMBL document CHEMBL1201862, “PubChem BioAssay data set” (2004).

Among the test systems are SK-MEL-28; U-251; OVCAR-3; T47D; M14; MCF7; NCI-H522; CCRF-CEM; TK-10; CAKI-1; HL-60; RXF 393; UACC-257; SK-MEL-5; HOP-92; UO-31; MDA-MB-231; SNB-75; SNB-19; MDA-N.
Common to all, as to test: NCI tumour cell line growth inhibition, 48 h

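Values below derive from 48-hour exposures of cells grown in 96-well plates, with endpoints linearly interpolated between the two concentrations bracketing the appropriate inhibition level. Abbreviation: GI50, concentration required for 50% inhibition of growth.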 The source made the active and inactive calls. No stated cut-off is given here; in the data, active = GI50 up to about 1.1 µM and inactive = higher.

For the molecule `C[C@]12CC[C@H](O)C[C@@H]1CC[C@@H]1[C@@H]2CC[C@]2(C)[C@@H](c3cc(C(F)(F)F)[nH]n3)CC[C@@H]12`, the GI50 was 13.1 µM (inactive) with SK-MEL-28; 7.01 µM (inactive) with U-251; 10.1 µM (inactive) with OVCAR-3; 5.26 µM (inactive) in the test with T47D; 9.1 µM (inactive) in the test with M14; 5.75 µM (inactive) with MCF7. For the same molecule, the GI50 in the test with NCI-H522 was > 22.5 µM (inactive); in the test with CCRF-CEM, 0.957 µM (active); with TK-10, 6.07 µM (inactive); with CAKI-1, 13.2 µM (inactive); with HL-60, 0.908 µM (active); in the test on RXF 393 it was 4.15 µM (inactive). The GI50 in the test on UACC-257 was 5.69 µM (inactive); with SK-MEL-5, 6.82 µM (inactive); with HOP-92 it was 2.74 µM (inactive); in the test with UO-31, 1.51 µM (inactive); with MDA-MB-231, 6.67 µM (inactive); in the test on SNB-75, 11.6 µM (inactive). The GI50 was 9.68 µM (inactive) in the test with SNB-19 and 10.8 µM (inactive) in the test on MDA-N.
For the molecule `CN(C)c1ccc(/C=C2\N=C(N/N=C/c3ccc(N(C)C)cc3)NC2=O)cc1`, the GI50 is > 100 µM (inactive) in the test with SK-MEL-28; 52.1 µM (inactive) in the test with U-251; 50.9 µM (inactive) with OVCAR-3; 16.7 µM (inactive) with T47D; 88.7 µM (inactive) with M14; 71.9 µM (inactive) in the test with MCF7. Also, the GI50 in the test on NCI-H522 is 47.9 µM (inactive); with CCRF-CEM it was 27.5 µM (inactive); with TK-10 it was > 100 µM (inactive); in the test on CAKI-1 it was > 100 µM (inactive); in the test with HL-60, 29.4 µM (inactive); in the test on RXF 393, 7.6 µM (inactive). In addition, the GI50 with UACC-257 was > 100 µM (inactive); in the test with SK-MEL-5, 44.4 µM (inactive); with HOP-92, 25.5 µM (inactive); with UO-31, > 100 µM (inactive); with MDA-MB-231 it was 31.4 µM (inactive); in the test with SNB-75 it was > 100 µM (inactive). Further, the GI50 with SNB-19 and with MDA-N was > 100 µM (inactive) throughout.
Regarding `c1ccc2cc(NCNc3ccc4ccccc4c3)ccc2c1`, the GI50 with SK-MEL-28 is 34.8 µM (inactive); with U-251, 23.3 µM (inactive); in the test on OVCAR-3, 5.69 µM (inactive); in the test with T47D, 15.7 µM (inactive); in the test with M14, 15.5 µM (inactive); in the test with MCF7 it was 11.8 µM (inactive). The GI50 with NCI-H522 was 17.6 µM (inactive); with CCRF-CEM it was 11.8 µM (inactive); in the test on TK-10 it was 21.7 µM (inactive); in the test on CAKI-1, 17.9 µM (inactive); in the test on HL-60 it was 0.893 µM (active); with RXF 393, 10.3 µM (inactive). For the same molecule, the GI50 in the test on UACC-257 was 8.73 µM (inactive); with SK-MEL-5, 6.25 µM (inactive); in the test on HOP-92, 1.27 µM (inactive); in the test on UO-31 it was 13.7 µM (inactive); with MDA-MB-231, 2.51 µM (inactive); in the test on SNB-75 it was 13.2 µM (inactive). Further, the GI50 in the test on SNB-19 is 28.1 µM (inactive); in the test with MDA-N it was 4.33 µM (inactive).
For the molecule `CCC1(O)CC(OC2CC(N(C)C)C(OC3CC(O)C(OC4CCC(=O)C(C)O4)C(C)O3)C(C)O2)c2c(cc3c(c2O)C(=O)c2c(O)ccc(O)c2C3=O)C1C(=O)OC` (stereo not given), the GI50 is < 0.01 µM (active) in the test with SK-MEL-28; < 0.01 µM (active) in the test on U-251; 0.0101 µM (active) in the test with OVCAR-3; < 0.01 µM (active) in the test on T47D; < 0.01 µM (active) with M14; < 0.01 µM (active) with MCF7. The GI50 with NCI-H522, in the test with CCRF-CEM, in the test with TK-10, with CAKI-1, with HL-60 and in the test on RXF 393 was < 0.01 µM (active) throughout. In addition, the GI50 with UACC-257 is < 0.01 µM (active); in the test on SK-MEL-5, < 0.01 µM (active); with HOP-92 it was < 0.01 µM (active); with UO-31, < 0.01 µM (active); in the test with MDA-MB-231, < 0.0132 µM (active); in the test with SNB-75, < 0.01 µM (active). Also, the values for the GI50 in the test with SNB-19 and in the test on MDA-N were < 0.0127 µM (active) and < 0.01 µM (active), respectively.
Turning to `CCN(CC)Cc1nc2sc3c(c2c(=O)n1-c1ccccc1)CCCC3`, the GI50 in the test on SK-MEL-28 was 35.4 µM (inactive); in the test with U-251, 16.9 µM (inactive); in the test with OVCAR-3, 17.2 µM (inactive); in the test on T47D, 18.8 µM (inactive); in the test on M14, 15.9 µM (inactive); in the test on MCF7, 17.5 µM (inactive). Moreover, the GI50 in the test on NCI-H522 is 21.8 µM (inactive); with CCRF-CEM, 28.4 µM (inactive); with TK-10, 16.4 µM (inactive); in the test on CAKI-1 it was 19.7 µM (inactive); in the test on HL-60, 23.3 µM (inactive); with RXF 393, 18.5 µM (inactive). Also, the GI50 in the test on UACC-257 was 21.2 µM (inactive); in the test on SK-MEL-5, 16.3 µM (inactive); with HOP-92, 22 µM (inactive); with UO-31 it was 11.2 µM (inactive); with MDA-MB-231, 15.3 µM (inactive); in the test on SNB-75, 18.4 µM (inactive). For the same molecule, the GI50 in the test on SNB-19 was 35.6 µM (inactive); in the test with MDA-N it was 19.7 µM (inactive).
Regarding `Cc1ccc(OCC2OC(n3cnc4nc(Cl)nc(Cl)c43)CC2Oc2ccc(C)cc2)cc1` (stereo not given), the GI50 in the test with SK-MEL-28 is 3.65 µM (inactive); with U-251, 11.1 µM (inactive); with OVCAR-3, 6.38 µM (inactive); with T47D, 6.19 µM (inactive); with M14 it was 6.35 µM (inactive); with MCF7, 5.61 µM (inactive). Moreover, the GI50 with NCI-H522 is 1.84 µM (inactive); with CCRF-CEM, 2.99 µM (inactive); with TK-10 it was 13.8 µM (inactive); in the test with CAKI-1 it was 4.75 µM (inactive); in the test with HL-60, 0.402 µM (active); with RXF 393, 3.85 µM (inactive). In addition, the GI50 in the test on UACC-257 is 12.9 µM (inactive); with SK-MEL-5, 16.3 µM (inactive); with HOP-92, 2.69 µM (inactive); in the test with UO-31 it was 10.1 µM (inactive); with MDA-MB-231, 2.51 µM (inactive); in the test with SNB-75 it was 14.7 µM (inactive). Further, the GI50 with SNB-19 is 15.7 µM (inactive); with MDA-N, 3.74 µM (inactive).
As for `CC(C)(Br)C(=O)C(Br)Br`, the GI50 is 9.04 µM (inactive) in the test on SK-MEL-28; > 28 µM (inactive) in the test with U-251; 6.89 µM (inactive) with OVCAR-3; 6.22 µM (inactive) in the test with T47D; 2.44 µM (inactive) in the test with M14; 6.38 µM (inactive) in the test with MCF7. The GI50 was 1.67 µM (inactive) with NCI-H522; 1.51 µM (inactive) with CCRF-CEM; 9.04 µM (inactive) in the test with TK-10; 1.95 µM (inactive) in the test on CAKI-1; 1.9 µM (inactive) in the test with HL-60; 3.16 µM (inactive) in the test with RXF 393. Besides, the GI50 with UACC-257 was 9.84 µM (inactive); in the test on SK-MEL-5, 12.4 µM (inactive); in the test on HOP-92, 1.7 µM (inactive); in the test with UO-31, 17.5 µM (inactive); in the test with MDA-MB-231, 5.56 µM (inactive); in the test with SNB-75 it was 13.7 µM (inactive). The GI50 with SNB-19 is 19.7 µM (inactive); with MDA-N, 5.3 µM (inactive).
